pEC50, pIC50: −log10 of the molar value. Where two headings read alike, the source gives them in different places.

For one assay, the target named is SUV420H1 enzyme (Homo sapiens, UniProt Q4FZB7). The experiment in a line: TR-FRET SAH SUV420H1 enzyme inhibition assay. In kind it is biochemical. The note with it: Histone Peptide H4(8-30)me1 and SAM, TR-FRET detection of SAH, read-out: TR-FRET SAH_SUV420H1 IC50. The protocol: Test compounds were dispensed by a Labcyte Echo in 384-well low volume assay plates with 3-fold serial dilutions from 50 μM to 0.00075 μM. 5 μL of SUV420H1 enzyme (Abbvie) at 90 nM was added to all wells except for the no enzyme control wells and incubated for 30 minutes at room temperature before 5 μL of Histone Peptide H4(8-30)me1 (Anaspec) at 5 μM and SAM at 4 μM was added to all wells. The plates were incubated in a humidified chamber overnight at room temp and then 10 μL of the detection reagent that contained RIPA buffer (50 mM Tris-HCl, pH 8.0, 150 mM sodium chloride, 1.0% Igepal CA-630 (NP-40), 0.5% sodium deoxycholate and 0.1% sodium dodecyl sulfate) (Sigma) with 2 nM of Terbium chelate anti S-adenosyl-L-homocysteine (SAH) (Abbvie) antibody and Oregon Green labeled SAH at 4 nM was added. The plates were further incubated for 4 hours at room temperature. The plates were read in a Perkin Elmer Envision using a TR-FRET protocol with Excitation set at 335 nm and Emission at 520 and 495 nm. To generate dose response curves the data is normalized to percent inhibition by setting the average of the plus and minus enzyme control wells to 0% and 100% inhibition respectively. The ICso values for the compounds are generated by fitting the normalized data with Accelrys Assay Explorer 3.3 to a sigmoidal curve model using […], Y=(100*x^n)/(K^n+x^n), where Y is the measured response, x is the compound concentration, n is the Hill Slope and K is the IC50 and the lower and higher asymptotes are constrained to 0 and 100 respectively.
Sequence of SUV420H1 enzyme (Q4FZB7 whole entry): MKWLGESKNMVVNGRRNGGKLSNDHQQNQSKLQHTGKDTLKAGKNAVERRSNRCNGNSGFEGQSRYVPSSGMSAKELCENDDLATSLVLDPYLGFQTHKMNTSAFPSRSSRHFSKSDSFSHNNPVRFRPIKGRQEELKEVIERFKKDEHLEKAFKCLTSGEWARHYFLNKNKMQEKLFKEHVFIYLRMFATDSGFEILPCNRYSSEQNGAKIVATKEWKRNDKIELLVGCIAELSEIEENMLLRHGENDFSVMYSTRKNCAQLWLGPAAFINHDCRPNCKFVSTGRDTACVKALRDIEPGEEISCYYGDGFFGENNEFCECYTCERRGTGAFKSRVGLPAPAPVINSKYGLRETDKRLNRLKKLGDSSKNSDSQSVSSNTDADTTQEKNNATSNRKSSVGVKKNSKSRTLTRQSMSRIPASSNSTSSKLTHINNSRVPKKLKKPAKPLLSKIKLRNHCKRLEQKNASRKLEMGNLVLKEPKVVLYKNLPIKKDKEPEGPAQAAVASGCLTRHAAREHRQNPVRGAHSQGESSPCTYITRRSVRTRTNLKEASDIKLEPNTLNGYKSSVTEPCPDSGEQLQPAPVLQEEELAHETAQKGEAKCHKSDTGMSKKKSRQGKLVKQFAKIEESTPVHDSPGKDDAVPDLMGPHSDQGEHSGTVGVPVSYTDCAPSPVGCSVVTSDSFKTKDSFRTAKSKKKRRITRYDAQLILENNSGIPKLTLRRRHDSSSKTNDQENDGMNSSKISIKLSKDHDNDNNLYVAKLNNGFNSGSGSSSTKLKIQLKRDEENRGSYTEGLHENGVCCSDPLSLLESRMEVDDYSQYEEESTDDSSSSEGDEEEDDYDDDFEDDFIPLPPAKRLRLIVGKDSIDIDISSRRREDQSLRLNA

The subject of assay [1] is H4K20me3 in PC-3 cells (SUV420H1 cellular activity). The experiment in a line: H4K20me3 Cellular PD Assay (high content microscopy). In kind it is cell-based. The following applies: treated for 72 hours, H4K20me3 immunofluorescence, read-out: H4K20me3 Inhibition EC50. The protocol: A high content microscopy-based PD assay was used to analyze the decrease of H4K20me3 upon inhibition of SUV420H1 cellular activity. PC-3 cells were plated at 3,000 cells per well in black Collagen I coated 96-well plates (Perkin Elmer, #6005810) in RPMI supplemented with 10% heat inactivated FBS, 1% sodium pyruvate and 1% non-essential amino acids in a 37° C. tissue culture incubator. At 24 hours post seeding, cells were treated with the indicated compounds for 72 hours in an 8-point dose response using half log dilutions from […] and then fixed in 2% formaldhyde (Polysciences, Inc., #04018) for 10 minutes at room temperature. Cells were washed in PBS and permeablized in 0.1% Triton X-100 for 10 minutes at room temperature. After blocking in 1% BSA (Sigma, #A7030) in PBS for 1 hour at room temperature, a mouse monoclonal antibody directed toward H4K20me3 (Santa Cruz, #sc-134216) in antibody dilution buffer (0.3% BSA in PBS) was added for 16 hours at 4° C. Cells were then washed 3 times in PBS and an Alexa Fluor 555 conjugated goat anti-mouse (Life Technologies #A-21424) secondary antibody was added for 1 hour at room temperature. Hoechst 33342 diluted 1:10000 (Life Technologies #H3570) was also added during the secondary antibody incubation. Cells were washed 3 times in PBS and stored in PBS at 4° C. Fluorescent images were acquired within 24 hours on a Cell Insight (Thermo Fisher Scientific) using the Target Activation algorithm. Objects were identified via nuclear Hoescht staining, and changes in average mean intensity in the fluorescent signals of H4K20me3 were quantified using the HCS View software platform (Thermo Fisher Scientific).

Take “1-{4-[6,7-dichloro-4-(cyclopentylamino)phthalazin-1-yl]pyridin-2-yl}pyrrolidin-3-ol [Example 36]”: the pIC50 (as a rule, −log10 of the IC50, conventionally taken in molar units) at SUV420H1 enzyme is 6.76. For the same compound, in assay [1], the pEC50 (commonly the EC50 on a negative log10 scale, so that one unit is a factor of ten) was 5.78. Regarding `Clc1cc2c(Cl)nnc(NC3CCCC3)c2cc1Cl` [Example 1, 4,6,7-trichloro-N-cyclopentylphthalazin-1-amine], the pIC50 at SUV420H1 enzyme is 6.44. For the same compound, the pEC50 in assay [1] (Homo sapiens) is 4.94. On the same counts, the results for `Cn1ccc(-c2nnc(NC3CCCC3)c3cc(Cl)c(Cl)cc23)n1` [Example 4, 6,7-dichloro-N-cyclopentyl-4-(1-methyl-1H-pyrazol-3-yl)phthalazin-1-amine] are 7.03 and 5.94. On the same counts, the results for `Cn1cc(-c2nnc(NC3CCCC3)c3cc(Cl)c(Cl)cc23)cn1` [Example 5, 6,7-dichloro-N-cyclopentyl-4-(1-methyl-1H-pyrazol-4-yl)phthalazin-1-amine] are 6.95 and 6.30. With `Clc1cc2c(NC3CCCC3)nnc(-c3ccncc3)c2cc1Cl` [Example 6, 6,7-dichloro-N-cyclopentyl-4-(pyridin-4-yl)phthalazin-1-amine], the pIC50 at SUV420H1 enzyme is 7.41. In addition, in assay [1] (Homo sapiens), the pEC50 was 6.28. As for `Clc1cc2c(NC3CCCC3)nnc(-c3ccsc3)c2cc1Cl` [Example 7, 6,7-dichloro-N-cyclopentyl-4-(thiophen-3-yl)phthalazin-1-amine], the pIC50 on SUV420H1 enzyme was 7.12. Besides, in assay [1] (Homo sapiens), the pEC50 was 5.82. On the same counts, the results for `Clc1cc2c(NC3CCCC3)nnc(N3CCCCC3)c2cc1Cl` [Example 8, 6,7-dichloro-N-cyclopentyl-4-(piperidin-1-yl)phthalazin-1-amine] are 7.06 and 5.53.

With `CN1CCN(c2nnc(NC3CCCC3)c3cc(Cl)c(Cl)cc23)CC1` [Example 9, 6,7-dichloro-N-cyclopentyl-4-(4-methylpiperazin-1-yl)phthalazin-1-amine], the negative logarithm of the IC50 (pIC50) at SUV420H1 enzyme is 6.43. Further, in assay [1] (Homo sapiens), the pEC50 is 5.46. On the same counts, the results for `Clc1cc2c(NC3CCCC3)nnc(-c3ccnc(N4CCNCC4)c3)c2cc1Cl` [Example 18, 6,7-dichloro-N-cyclopentyl-4-[2-(piperazin-1-yl)pyridin-4-yl]phthalazin-1-amine] are 6.28 and 5.98. On to `Fc1ccc(-c2nnc(NC3CCCC3)c3cc(Cl)c(Cl)cc23)cn1` [Example 19, 6,7-dichloro-N-cyclopentyl-4-(6-fluoropyridin-3-yl)phthalazin-1-amine], for which the pIC50 at SUV420H1 enzyme is 6.79. Besides, the pEC50 in assay [1] (Homo sapiens) was 5.92. Turning to `CN(C)c1ccc(-c2nnc(NC3CCCC3)c3cc(Cl)c(Cl)cc23)cn1` [Example 20, 6,7-dichloro-N-cyclopentyl-4-[6-(dimethylamino)pyridin-3-yl]phthalazin-1-amine], the pIC50 on SUV420H1 enzyme is 6.38. The pEC50 in assay [1] (Homo sapiens) was 5.02.

`CN(CCO)c1ccc(-c2nnc(NC3CCCC3)c3cc(Cl)c(Cl)cc23)cn1` [Example 26, 2-{[5-[6,7-dichloro-4-(cyclopentylamino)phthalazin-1-yl]pyridin-2-yl}(methyl)amino]ethanol]: the negative-log IC50 (pIC50) on SUV420H1 enzyme is 6.41. Besides, in assay [1] (Homo sapiens), the pEC50 is 5.35. Consider `OC1CCN(c2cc(-c3nnc(NC4CCCC4)c4cc(Cl)c(Cl)cc34)ccn2)CC1` [Example 29, 1-{4-[6,7-dichloro-4-(cyclopentylamino)phthalazin-1-yl]pyridin-2-yl}piperidin-4-ol], for which the pIC50 at SUV420H1 enzyme is 6.33. For the same compound, in assay [1] (Homo sapiens), the pEC50 was 5.51. On the same counts, the results for `OCCNc1ccc(-c2nnc(NC3CCCC3)c3cc(Cl)c(Cl)cc23)cn1` [Example 30, 2-({5-[6,7-dichloro-4-(cyclopentylamino)phthalazin-1-yl]pyridin-2-yl}amino)ethanol] are 5.98 and 6.33. On the same counts, the results for `COC(=O)c1nnc(NC2CCCC2)c2cc(Cl)c(Cl)cc12` [Example 37, methyl 6,7-dichloro-4-(cyclopentylamino)phthalazine-1-carboxylate] are 7.04 and 5.95. `NC1CCN(c2cc(-c3nnc(NC4CCCC4)c4cc(Cl)c(Cl)cc34)ccn2)C1` (stereo not shown) [Example 40, 4-[2-(3-aminopyrrolidin-1-yl)pyridin-4-yl]-6,7-dichloro-N-cyclopentylphthalazin-1-amine]: the pIC50 on SUV420H1 enzyme is 6.64. Moreover, the pEC50 in assay [1] (Homo sapiens) was 6.27. On the same counts, the results for `NC(=O)c1nnc(NC2CCCC2)c2cc(Cl)c(Cl)cc12` [Example 42, 6,7-dichloro-4-(cyclopentylamino)phthalazine-1-carboxamide] are 6.90 and 5.55. On the same counts, the results for `CC(C)(C)OC(=O)Cn1cc(-c2nnc(NC3CCCC3)c3cc(Cl)c(Cl)cc23)cn1` [Example 43, tert-butyl {4-[6,7-dichloro-4-(cyclopentylamino)phthalazin-1-yl]-1H-pyrazol-1-yl}acetate] are 6.76 and 5.10.

Turning to `Cn1cc(NC(=O)c2nnc(NC3CCCC3)c3cc(Cl)c(Cl)cc23)cn1` [Example 54, 6,7-dichloro-4-(cyclopentylamino)-N-(1-methyl-1H-pyrazol-4-yl)phthalazine-1-carboxamide], the pIC50 on SUV420H1 enzyme is 6.83. Besides, the pEC50 in assay [1] (Homo sapiens) is less than 4.70.

With `O=C(Cn1cc(-c2nnc(NC3CCCC3)c3cc(Cl)c(Cl)cc23)cn1)NCCO` [Example 56, 2-{4-[6,7-dichloro-4-(cyclopentylamino)phthalazin-1-yl]-1H-pyrazol-1-yl}-N-(2-hydroxyethyl)acetamide], the pIC50 at SUV420H1 enzyme is 6.78. In addition, the pEC50 in assay [1] (Homo sapiens) was 5.17. On the same counts, the results for `CN(CCO)C(=O)Cn1cc(-c2nnc(NC3CCCC3)c3cc(Cl)c(Cl)cc23)cn1` [Example 57, 2-{4-[6,7-dichloro-4-(cyclopentylamino)phthalazin-1-yl]-1H-pyrazol-1-yl}-N-(2-hydroxyethyl)-N-methylacetamide] are 6.69 and 4.97.

Take `CN1CCN(C(=O)Cn2cc(-c3nnc(NC4CCCC4)c4cc(Cl)c(Cl)cc34)cn2)CC1` [Example 61, 2-{4-[6,7-dichloro-4-(cyclopentylamino)phthalazin-1-yl]-1H-pyrazol-1-yl}-1-(4-methylpiperazin-1-yl)ethanone]: the pIC50 on SUV420H1 enzyme was 6.72. Further, the pEC50 in assay [1] (Homo sapiens) was 5.30.

In the case of `CC(=O)N1CCN(C(=O)Cn2cc(-c3nnc(NC4CCCC4)c4cc(Cl)c(Cl)cc34)cn2)CC1` [Example 62, 1-(4-acetylpiperazin-1-yl)-2-{4-[6,7-dichloro-4-(cyclopentylamino)phthalazin-1-yl]-1H-pyrazol-1-yl}ethanone], the pIC50 at SUV420H1 enzyme is 6.48. Also, in assay [1] (Homo sapiens), the pEC50 was 4.98. `O=C(C1CC1)N1CC=C(c2nnc(NC3CCCC3)c3cc(Cl)c(Cl)cc23)CC1` [Example 70, cyclopropyl {4-[6,7-dichloro-4-(cyclopentylamino)phthalazin-1-yl]-3,6-dihydropyridin-1(2H)-yl}methanone]: the negative logarithm of the EC50 (pEC50) in assay [1] (Homo sapiens) was 4.81. In the case of `Cn1cc(C(=O)N2CC=C(c3nnc(NC4CCCC4)c4cc(Cl)c(Cl)cc34)CC2)cn1` [Example 78, {4-[6,7-dichloro-4-(cyclopentylamino)phthalazin-1-yl]-3,6-dihydropyridin-1(2H)-yl}(1-methyl-1H-pyrazol-4-yl)methanone], in assay [1] (Homo sapiens), the pEC50 is 4.88. In the case of `O=C(C1CCC(O)C1)N1CC=C(c2nnc(NC3CCCC3)c3cc(Cl)c(Cl)cc23)CC1` (stereo not shown) [Example 84, {4-[6,7-dichloro-4-(cyclopentylamino)phthalazin-1-yl]-3,6-dihydropyridin-1(2H)-yl}(3-hydroxycyclopentyl)methanone], the pIC50 at SUV420H1 enzyme is 6.16.

The record behind these values is patent US20180093956A1, “SUBSTITUTED PHTHALAZINES” (AbbVie Inc., priority 2015, published 2018).
